The values below come from patent publication US11209437B2, “Fluorescent probe and preparation method and use thereof” (Fluorescence Diagnosis (shanghai) Biotech Company Ltd., priority 2016, dated 2021).

A short description of data set [1]: Viscosity responsiveness: fluorescence emission spectra of probes in glycerol and methanol. The data set is classed as physicochemical. As to conditions: for Emission wavelength: excited at maximum excitation wavelength of each probe; for Fluorescence ratio in glycerol to methanol: probe 1×10^−5 M. Put shortly: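 Each probe, from a 1×10^−2 M DMSO stock, was diluted to a final 1×10^−5 M in glycerol and in methanol. Fluorescence emission spectra were then recorded under identical conditions at each probe's maximum excitation wavelength.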

The nature of data set [2]: Fluorescence of free probe prior to binding to a protein tag. In kind it is physicochemical.
In the next data set the target is T1, SNAP protein tags (Homo sapiens, UniProt P16455, A127T/A154D/C150Q/C62A/E30R/G131K/G132T/G153L/K125A/K32I/L33F/M134L/N157G/Q115S/Q116H/R128A/R135S/S151G/S152D/S159E).
T1 sequence (P16455 1-182 E30R/K32I/L33F/C62A/Q115S/Q116H/K125A/A127T/R128A/G131K/G132T/M134L/R135S/C150Q/S151G/S152D/G153L/A154D/N157G/S159E): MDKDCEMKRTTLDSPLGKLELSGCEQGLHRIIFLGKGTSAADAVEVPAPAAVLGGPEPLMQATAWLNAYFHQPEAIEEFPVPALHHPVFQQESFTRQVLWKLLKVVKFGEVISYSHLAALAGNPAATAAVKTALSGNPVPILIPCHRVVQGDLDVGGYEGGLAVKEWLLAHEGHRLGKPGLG
The experiment in a line: Fluorescence activation of probe after incubation with corresponding protein tag (SNAP). The data set is classed as biochemical. As to conditions: probe 5 μM, protein tag 10 μM, 37° C., 1 hr. The essentials: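 Probe (5 μM final) mixed with CLIP or SNAP protein tag (10 μM final) and incubated 1 hr at 37° C. Fluorescence intensity change measured by fluorescence spectrophotometer, with quantum yield of tag-bound probe determined.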

The test system of data set [3] is HeLa cells with stable expression of protein tags. The experiment in a line: Labeling of HeLa cells expressing protein tags vs HeLa-WT cells, confocal imaging. In kind it is cell-based. As to conditions: probe 5 μM, 37° C., 2 hrs. On the procedure: HeLa cells with stable expression of protein tags and HeLa-WT cells (HeLa primitive cells, with no protein tag expressed) were implanted in a 14 mm glass-bottom 96-well cell culture plate and stabilized for 10 hrs. Probes 1, 15, 21, 30, 56, 60, 63, 88 were added to the media, respectively and diluted to 5 μMs. The cells were incubated in a carbon dioxide incubator at 37° C. for 2 hrs, and then a Leica TPS-8 confocal microscopy was used to image the fluorescent changes of the labeled cells. […] However, for HeLa cells with protein tags expressed shown by group A in FIG. 12, strong fluorescent signals could be detected, which are nearly 300 times stronger.

A further data set has as its system HeLa cells. Kind of data set: Labeling of organelle-localized protein tags in HeLa cells without washing. The data set is classed as cell-based. As to conditions: 0.2 μM probe, 2 hrs, no washing. The source says: To verify that probes 1, 21, 48, 60, 66 and 77 can be used to label target proteins located by different organelles, HeLa cells were taken as an example to detect the effect of probes on labeling different subcellular proteins. HeLa cells were implanted 5000 cells per well in a 96-well glass-bottom cell culture plate. 14 hrs later, the cells were transfected with the plasmids encoding different organelle localized protein tags using Lipo2000; the original medium was removed 24 hrs after transfection, washed with a phenol-free red DMEM medium twice, and incubated with a phenol-free red medium containing 0.2 μM probes for 2 hrs, and then the cell labeling effects were detected by imaging with a leica TCS-8 confocal microscopy.

A further data set has as its system fusion protein CX43-SNAP. The experiment in a line: Tracing assembly of CX43-SNAP intercellular channels in HeLa cells. The data set is classed as cell-based. As to conditions: probe 21 2 μM 1 hour first, then probe 1 1 μM. The text has this:
To verify that the probe of the present invention can be used to monitor the assembly and degradation process of biological macromolecules in mammalian cells in real time, the process of tracing the assembly of intercellular protein CX43 to form intercellular channels in mammalian cells by the probe was detected by taking HeLa cells as an example. The C-terminal of CX43 gene was fused with SNAP gene, and HeLa cell line with stable expression of fusion protein CX43-SNAP was constructed and obtained by lentivirus infection technology. HeLa-CX43-SNAP cell lines were implanted in a 20 mm glass-bottom cell culture dish 10 hrs before the probe labeling. To conduct labeling, a phenol-free red DMEM medium was first used to dilute the probe 21 to 2 μM to replace the original cell culture medium. Cells were incubated in a carbon dioxide incubator at 37° C. for 1 hour. The cells were then washed twice using a fresh phenol-free red DMEM medium, with unbound probe 21 removed at 2-minute intervals. Then, DMEM phenol-free red culture medium containing 1 μM probe 1 was added to label cells. Leica SP8 confocal microscopy was used to monitor for a long time the fluorescence intensity and position changes of labeled cell samples at the corresponding fluorescence channels of probes 21 and 1, as shown in FIGS. 17A and 17B, respectively. […]

The next data set deals with CLIP protein tags. Kind of data set: Fluorescence activation of probe after incubation with corresponding protein tag (CLIP). As to conditions: probe 5 μM, protein tag 10 μM, 37° C., 1 hr. In kind it is biochemical. On the procedure: Probes were mixed with corresponding protein tags to obtain mixed samples, in which the final probe concentration was 5 μM, and the final protein tag concentration was 10 μM. The mixed samples were incubated 37° C. for 1 hr, fluorescence spectrophotometer was used to detect the change in fluorescence intensity, and the results are shown in Table 1.
From the quantum yield of probe bound to protein tag, after reacting with the protein tags, the probes of the Examples could be detected to have significant signal enhancement in corresponding excitation transmission channels, the fluorescence activation multiple reached several hundreds to a thousand or more, and the brightness was high, which illustrates that after the probes of the Examples are bound to the protein tags, fluorescence of the probes can be activated, and the probes have good fluorescent molecular switching properties. In contrast, though the fluorescence of the reference probes could also be activated, the quantum yield of activated fluorescence was very low, and the brightness was very poor. In particular, in view of comparison results between probe 98 and reference probe 99, probe 101 and reference probe 102, probe 103 and reference probe 104, probe 105 and reference probe 106, probe 107 and reference probe 108, probe 109 and reference probe 110, probe 111 and reference probe 112, probe 114 and reference probe 115, probe 117 and reference probe 118, probe 120 and reference probe 121 in Table 1, for the same fluorescent dye, when the ligand is connected to the electron donor part of the fluorescent dye, the fluorescence activation brightness of the probe is much higher than the reference probe in which ligand is connected to the electron acceptor part of the fluorescent dye.

Data set [4] deals with T2, SNAP protein tag (Homo sapiens, UniProt P16455, A127T/A154D/C150Q/C62A/E30R/G131K/G132T/G153L/K125A/K32I/L33F/M134L/N157G/Q115S/Q116H/R128A/R135S/S151G/S152D/S159E).
T2 construct: expressed in transfected cells; host or cells: mouse liver after tail-vein plasmid injection
T2 sequence (P16455 1-182 E30R/K32I/L33F/C62A/Q115S/Q116H/K125A/A127T/R128A/G131K/G132T/M134L/R135S/C150Q/S151G/S152D/G153L/A154D/N157G/S159E): T1 sequence (P16455 1-182 E30R/K32I/L33F/C62A/Q115S/Q116H/K125A/A127T/R128A/G131K/G132T/M134L/R135S/C150Q/S151G/S152D/G153L/A154D/N157G/S159E)
Kind of data set: In vivo labeling of SNAP protein tag expressed in mouse liver. As to conditions: mice, tail vein injection, 6 hrs after probe. On the procedure:
(§1) First, a SNAP protein tag expressing plasmid, pcdna3.1-SNAP (sample group), and a control plasmid without SNAP protein tag expressing, pcdna3.1-CAT (control group), were introduced into mice. This method dissolves plasmids in a large volume of solution and rapidly injects them into mice through tail vein injection. The mouse liver and kidneys absorb DNA and then express the target protein. 20 hrs after plasmid injection, 0.4 μM probe 88 dissolved in 200 μl PBS was injected into mice through tail vein injection to label the SNAP protein tag. 6 hrs later, the mice were dissected, and the fluorescence differences in the liver parts of different mouse samples were detected by KODAK multi-spectral in vivo imaging system. The liver fluorescence of the control plasmid pcdna3.1-CAT injected with probe 88 was very low, close to the background fluorescence level of the blank liver without the probe, while the liver of SNAP plasmid pcdna3.1-SNAP injected with probe 88 had strong fluorescence, and the signal intensity was more than 20 times higher than that of the control group.

The test system of data set [5] is SNAP protein tag. The description is as above. As to conditions: mice, tail vein injection, 6 hrs after probe. On the procedure: as §1

For the molecule `CN(CCOC(=O)NCc1ccc(COc2nc(N)nc3[nH]cnc23)cc1)c1ccc(/C=C(\C#N)C(=O)OC(C)(C)C)cc1` [probe 1], in data set [1], the Emission wavelength turned out to be 480 nm and the “Fluorescence ratio in glycerol to methanol” value (“Fluorescence ratio” below) is reported as 560. For the same molecule, the “Quantum yield of free probe” value in data set [2] is on record as less than 0.001. For the same molecule, on SNAP protein tags, the Fluorescence activation multiple worked out at 360 and the “Quantum yield of probe bound to protein tag” value (from here on “Quantum yield of probe bound”) was 0.35. Further, in data set [3], the “Fluorescence signal in HeLa-WT cells (no protein tag expressed)” value is “no corresponding fluorescence signal was detected” and the “Fluorescent signal in HeLa cells with protein tags expressed, relative to HeLa-WT” value (shortened to “Fluorescent signal … relative to HeLa-WT”) was approximately 300 times. The “Labeling of subcellular organelle structures” value (from here on “Labeling”) in the data set on HeLa cells is listed as “clearly display a variety of subcellular organelle structures without washing”. For the same molecule, the “Fluorescence signal at intercellular channels” value in the data set on fusion protein CX43-SNAP is “appeared and gradually increased at the edge of intercellular channels”.

Regarding `CN(CCOC(=O)NCc1ccc(COc2nccc(N)n2)cc1)c1ccc2nc(/C=C(\C#N)c3nc4ccccc4s3)oc2c1` [probe 48], in data set [1], the Emission wavelength was found to be 625 nm and the “Fluorescence ratio” value is reported as 180. In addition, in [2], the “Quantum yield of free probe” value is listed as less than 0.001. Moreover, in the data set on CLIP protein tags, the Fluorescence activation multiple turned out to be 428 and the “Quantum yield of probe bound” value is 0.16. In addition, the “Labeling” value in the data set with HeLa cells is recorded as “clearly display a variety of subcellular organelle structures without washing”.

`CN(CCOC(=O)NCc1ccc(COc2nc(N)nc3[nH]cnc23)cc1)c1cc2sc3cc(/C=C(\C#N)C(=O)OC(C)(C)C)sc3c2s1` [probe 60]: in [1], the Emission wavelength is reported as 620 nm and the “Fluorescence ratio” value is on record as 1199. Also, the “Quantum yield of free probe” value in data set [2] is given as 0.0011. Also, on SNAP protein tags, the Fluorescence activation multiple is reported as 751 and the “Quantum yield of probe bound” value turned out to be 0.81. For the same molecule, in [3], the “Fluorescence signal in HeLa-WT cells (no protein tag expressed)” value is “no corresponding fluorescence signal was detected” and the “Fluorescent signal … relative to HeLa-WT” value is approximately 300 times. In the data set with HeLa cells, the “Labeling” value is given as “clearly display a variety of subcellular organelle structures without washing”.

Regarding `CN(CCOC(=O)NCc1ccc(COc2nc(N)nc3[nH]cnc23)cc1)c1ccc2c(c1)sc1cc(/C=C(/C#N)C(=O)OC(C)(C)C)sc12` [probe 63], in [1], the Emission wavelength is on record as 620 nm and the “Fluorescence ratio” value is reported as 531. Also, the “Quantum yield of free probe” value in data set [2] came out at 0.0015. Also, at SNAP protein tags, the Fluorescence activation multiple is listed as 486 and the “Quantum yield of probe bound” value stood at 0.73. Moreover, in [3], the “Fluorescence signal in HeLa-WT cells (no protein tag expressed)” value is on record as “no corresponding fluorescence signal was detected” and the “Fluorescent signal … relative to HeLa-WT” value is on record as approximately 300 times.

As to `CN(CCOC(=O)NCc1ccc(COc2nc(N)nc3[nH]cnc23)cc1)c1ccc(-c2ccc(/C=C(\C#N)C(=O)OC(C)(C)C)s2)cc1` [probe 66], in data set [1], the Emission wavelength worked out at 620 nm and the “Fluorescence ratio” value was 386. Besides, in [2], the “Quantum yield of free probe” value is given as less than 0.001. For the same molecule, on SNAP protein tags, the Fluorescence activation multiple is 512 and the “Quantum yield of probe bound” value turned out to be 0.37. In addition, the “Labeling” value in the data set with HeLa cells is reported as “clearly display a variety of subcellular organelle structures without washing”.

Consider `CN(CCOC(=O)NCc1ccc(COc2nc(N)nc3[nH]cnc23)cc1)c1ccc(-c2ccc(/C=C(\C#N)C(=O)OC(C)(C)C)s2)s1` [probe 77], for which, in [1], the Emission wavelength is given as 655 nm and the “Fluorescence ratio” value is 279. The “Quantum yield of free probe” value in [2] amounted to 0.0014. Moreover, on SNAP protein tags, the Fluorescence activation multiple was 268 and the “Quantum yield of probe bound” value amounted to 0.38. Moreover, in the data set on HeLa cells, the “Labeling” value was “clearly display a variety of subcellular organelle structures without washing”.

As to `CC1=CC(C)(C)N(CCOC(=O)NCc2ccc(COc3nc(N)nc4[nH]cnc34)cc2)c2ccc(/C=C(\C#N)c3nc4ccccc4o3)cc21` [probe 88], in data set [1], the Emission wavelength worked out at 595 nm and the “Fluorescence ratio” value is given as 298. Further, the “Quantum yield of free probe” value in data set [2] is listed as less than 0.001. On SNAP protein tags, the Fluorescence activation multiple is listed as 621 and the “Quantum yield of probe bound” value is recorded as 0.29. For the same molecule, in data set [3], the “Fluorescence signal in HeLa-WT cells (no protein tag expressed)” value is “no corresponding fluorescence signal was detected” and the “Fluorescent signal … relative to HeLa-WT” value is approximately 300 times. The “Liver fluorescence signal intensity of pcdna3.1-SNAP group relative to control group” value at SNAP protein tag [4] was “more than 20 times”. In the data set on SNAP protein tag [5], the “Liver fluorescence of control plasmid pcdna3.1-CAT group” value is “very low”.
